The results in this text go back to ChEMBL document CHEMBL1128913, “Synthesis and in vitro cytotoxicity of cryptophycins and related analogs” (Bioorg Med Chem Lett, 1996).

Common to all, as to assay type: functional, cell-based
Assay [1] relates to B16-F10. The assay is described as follows: Cytotoxic activity against B16F10 mouse melanoma cells.
The subject of assay [2] is KB. The assay is described as follows: Cytotoxic activity against KB human nasopharyngeal carcinoma cells.
Assay [3] concerns KB. In words: Cytotoxic activity against KBV vinblastine resistant KB cells. The following applies: Homo sapiens.
Assay [4] has as its system HT-29. The assay is described as follows: Cytotoxic activity against HT-29 human colon adenocarcinoma cells.
The subject of assay [5] is DA-3 cell line. In words: Cytotoxic activity against DA-3 mouse mammary adenocarcinoma cells.

One may read the IC50 as the concentration at which inhibition is half-maximal. The low end stands for higher potency, the high end for lower potency.

Take `COc1ccc(C[C@H]2NC(=O)/C=C/C[C@@H](C(Br)C#Cc3ccccc3)OC(=O)[C@H](CC(C)C)OC(=O)[C@H](C)CNC2=O)cc1` (stereo not given in full): the 50% inhibitory concentration (IC50) in assay [1], in assay [2], in assay [3], in assay [4] and in assay [5] was greater than 10 nM throughout.
On to `COc1ccc(C[C@H]2NC(=O)/C=C/C[C@@H](C(=O)/C=C\c3ccccc3)OC(=O)[C@H](CC(C)C)OC(=O)CCNC2=O)cc1`, for which the IC50 in assay [1], in assay [2], in assay [3], in assay [4] and in assay [5] was greater than 10 nM each time.
As to `COc1ccc(C[C@H]2NC(=O)/C=C/C[C@@H](C(O)/C=C/c3ccccc3)OC(=O)[C@H](CC(C)C)OC(=O)[C@H](C)CNC2=O)cc1` (stereo not given in full), the IC50 in assay [1], in assay [2], in assay [3], in assay [4] and in assay [5] was greater than 10 nM each time.
Consider `COc1ccc(C[C@H]2NC(=O)/C=C/C[C@@H](CCCc3ccccc3)OC(=O)[C@H](CC(C)C)OC(=O)CCNC2=O)cc1Cl`, for which the half-maximal inhibitory concentration (IC50) in assay [1], in assay [2], in assay [3], in assay [4] and in assay [5] was greater than 10 nM in each case.
As to `COc1ccc(C[C@H]2NC(=O)/C=C/C[C@@H]([C@H](C)/C=C/c3ccccc3)OC(=O)[C@H](CC(C)C)OC(=O)[C@H](C)CNC2=O)cc1`, the IC50 in assay [1], in assay [2], in assay [3], in assay [4] and in assay [5] was greater than 10 nM in each case.
On to `COc1ccc(C[C@H]2NC(=O)/C=C/C[C@@H](C/C=C/c3ccccc3)OC(=O)[C@H](CC(C)C)OC(=O)[C@H](C)CNC2=O)cc1`, for which the half-inhibitory concentration (IC50) in assay [1], in assay [2], in assay [3], in assay [4] and in assay [5] was greater than 10 nM each time.
Turning to `COc1ccc(C[C@H]2NC(=O)/C=C/C[C@@H](C(=O)/C=C/c3ccccc3)OC(=O)[C@H](CC(C)C)OC(=O)[C@H](C)CNC2=O)cc1`, the IC50 in assay [1], in assay [2], in assay [3], in assay [4] and in assay [5] was greater than 10 nM each time.
Regarding `COc1ccc(C[C@H]2NC(=O)/C=C/C[C@@H](C(C#Cc3ccccc3)OS(C)(=O)=O)OC(=O)[C@H](CC(C)C)OC(=O)[C@@H](C)CNC2=O)cc1` (stereo not given in full), the 50% inhibitory concentration (IC50) in assay [1], in assay [2], in assay [3], in assay [4] and in assay [5] was greater than 10 nM throughout.
Take `COc1ccc(C[C@H]2NC(=O)/C=C/C[C@@H]([C@@](C)(O)/C=C\c3ccccc3)OC(=O)[C@H](CC(C)C)OC(=O)CCNC2=O)cc1`: the IC50 in assay [1], in assay [2], in assay [3], in assay [4] and in assay [5] was greater than 10 nM throughout.
For the molecule `COc1ccc(C[C@H]2NC(=O)/C=C/C[C@@H](C(O)/C=C/c3ccccc3)OC(=O)[C@H](CC(C)C)OC(=O)CCNC2=O)cc1` (stereo not given in full), the IC50 in assay [1], in assay [2], in assay [3], in assay [4] and in assay [5] was greater than 10 nM in each case.
`COc1ccc(C[C@H]2NC(=O)/C=C/C[C@@H](C(O)CCc3ccccc3)OC(=O)[C@H](CC(C)C)OC(=O)[C@H](C)CNC2=O)cc1` (stereo not given in full): the IC50 in assay [1], in assay [2], in assay [3], in assay [4] and in assay [5] was greater than 10 nM in each case.
Regarding `COc1ccc(C[C@H]2NC(=O)/C=C/C[C@@H](C(/C=C/c3ccccc3)OC(C)=O)OC(=O)[C@H](CC(C)C)OC(=O)[C@H](C)CNC2=O)cc1` (stereo not given in full), the half-maximal inhibitory concentration (IC50) in assay [1], in assay [2], in assay [3], in assay [4] and in assay [5] was greater than 10 nM each time.
Turning to `COc1ccc(C[C@H]2NC(=O)/C=C/C[C@@H]([C@](C)(O)C#Cc3ccccc3)OC(=O)[C@H](CC(C)C)OC(=O)CCNC2=O)cc1`, the IC50 in assay [1], in assay [2], in assay [3], in assay [4] and in assay [5] was greater than 10 nM in each case.
For `COc1ccc(C[C@H]2NC(=O)/C=C/C[C@@H](C/C=C/c3ccccc3)OC(=O)[C@H](CC(C)C)OC(=O)[C@H](C)CNC2=O)cc1Cl`, the IC50 in assay [1], in assay [2], in assay [3], in assay [4] and in assay [5] was greater than 10 nM throughout.
`COc1ccc(C[C@H]2NC(=O)/C=C/C[C@@H](C(O)C#Cc3ccccc3)OC(=O)[C@H](CC(C)C)OC(=O)CCNC2=O)cc1` (stereo not given in full): the IC50 in assay [1], in assay [2], in assay [3], in assay [4] and in assay [5] was greater than 10 nM in each case.
Regarding `COc1ccc(C[C@H]2NC(=O)/C=C/C[C@@H](C(=O)CCc3ccccc3)OC(=O)[C@H](CC(C)C)OC(=O)CCNC2=O)cc1`, the IC50 in assay [1], in assay [2], in assay [3], in assay [4] and in assay [5] was greater than 10 nM throughout.
For the molecule `COc1ccc(C[C@H]2NC(=O)/C=C/C[C@@H]([C@H](C)[C@H]3O[C@@H]3c3ccccc3)OC(=O)[C@H](CC(C)C)OC(=O)[C@H](C)CNC2=O)cc1`, the IC50 worked out at 0.3 nM in assay [1]; 0.3 nM in assay [2]; 0.8 nM in assay [3]; 0.3 nM in assay [4]; 0.2 nM in assay [5].
For the molecule `COc1ccc(C[C@H]2NC(=O)/C=C/C[C@@H](C(=O)C#Cc3ccccc3)OC(=O)[C@H](CC(C)C)OC(=O)[C@@H](C)CNC2=O)cc1`, the IC50 in assay [1], in assay [2], in assay [3], in assay [4] and in assay [5] was greater than 10 nM each time.
Take `COc1ccc(C[C@H]2NC(=O)/C=C/C[C@@H]([C@@H](C)[C@H]3O[C@@H]3c3ccccc3)OC(=O)[C@H](CC(C)C)OC(=O)[C@H](C)CNC2=O)cc1`: the IC50 in assay [1] is greater than 4 nM; in assay [2], greater than 10 nM; in assay [3] it was greater than 10 nM; in assay [4], 3 nM; in assay [5] it was greater than 10 nM.
Regarding `COc1ccc(C[C@H]2NC(=O)/C=C/C[C@@H](C(Br)C#Cc3ccccc3)OC(=O)[C@H](CC(C)C)OC(=O)CCNC2=O)cc1` (stereo not given in full), the half-maximal inhibitory concentration (IC50) in assay [1], in assay [2], in assay [3], in assay [4] and in assay [5] was greater than 10 nM throughout.
As to `COc1ccc(C[C@H]2NC(=O)/C=C/C[C@@H](C(Br)C#Cc3ccccc3)OC(=O)[C@H](CC(C)C)OC(=O)[C@@H](C)CNC2=O)cc1` (stereo not given in full), the IC50 in assay [1], in assay [2], in assay [3], in assay [4] and in assay [5] was greater than 10 nM throughout.
`COc1ccc(C[C@H]2NC(=O)/C=C/C[C@@H](C(C#Cc3ccccc3)OS(C)(=O)=O)OC(=O)[C@H](CC(C)C)OC(=O)CCNC2=O)cc1` (stereo not given in full): the IC50 in assay [1], in assay [2], in assay [3], in assay [4] and in assay [5] was greater than 10 nM each time.
With `COc1ccc(C[C@H]2NC(=O)/C=C/C[C@@H](C(=O)[C@H]3O[C@@H]3c3ccccc3)OC(=O)[C@H](CC(C)C)OC(=O)[C@H](C)CNC2=O)cc1`, the IC50 in assay [1], in assay [2], in assay [3], in assay [4] and in assay [5] was greater than 10 nM each time.
Take `COc1ccc(C[C@H]2NC(=O)/C=C/C[C@@H](C(=O)C#Cc3ccccc3)OC(=O)[C@H](CC(C)C)OC(=O)[C@H](C)CNC2=O)cc1`: the half-inhibitory concentration (IC50) in assay [1], in assay [2], in assay [3], in assay [4] and in assay [5] was greater than 10 nM in each case.
Turning to `COc1ccc(C[C@H]2NC(=O)/C=C/C[C@@H](C(=O)/C=C/c3ccccc3)OC(=O)[C@H](CC(C)C)OC(=O)[C@H](C)CNC2=O)cc1Cl`, the 50% inhibitory concentration (IC50) in assay [1], in assay [2], in assay [3], in assay [4] and in assay [5] was greater than 10 nM throughout.
As for `COc1ccc(C[C@H]2NC(=O)/C=C/C[C@@H](C(O)C#Cc3ccccc3)OC(=O)[C@H](CC(C)C)OC(=O)[C@@H](C)CNC2=O)cc1` (stereo not given in full), the IC50 in assay [1], in assay [2], in assay [3], in assay [4] and in assay [5] was greater than 10 nM in each case.
Regarding `COc1ccc(C[C@H]2NC(=O)/C=C/C[C@@H](C(=O)/C=C/c3ccccc3)OC(=O)[C@H](CC(C)C)OC(=O)CCNC2=O)cc1`, the IC50 in assay [1], in assay [2], in assay [3], in assay [4] and in assay [5] was greater than 10 nM each time.
Take `COc1ccc(C[C@H]2NC(=O)/C=C/C[C@@H](C(C#Cc3ccccc3)OS(C)(=O)=O)OC(=O)[C@H](CC(C)C)OC(=O)[C@H](C)CNC2=O)cc1` (stereo not given in full): the concentration for half-maximal inhibition (IC50) in assay [1], in assay [2], in assay [3], in assay [4] and in assay [5] was greater than 10 nM each time.
For the molecule `COc1ccc(C[C@H]2NC(=O)/C=C/C[C@@H](CC#Cc3ccccc3)OC(=O)[C@H](CC(C)C)OC(=O)[C@@H](C)CNC2=O)cc1`, the 50% inhibitory concentration (IC50) in assay [1], in assay [2], in assay [3], in assay [4] and in assay [5] was greater than 10 nM in each case.
`COc1ccc(C[C@H]2NC(=O)/C=C/C[C@@H]([C@@H](C)/C=C/c3ccccc3)OC(=O)[C@H](CC(C)C)OC(=O)[C@H](C)CNC2=O)cc1`: the IC50 in assay [1], in assay [2], in assay [3], in assay [4] and in assay [5] was greater than 10 nM throughout.
